# In publication PMC9204419, “A Toolbox for the Generation of Chemical Probes for Baculovirus IAP Repeat Containing Proteins” (Frontiers in Cell and Developmental Biology, 2022):
# “And” between values parts separate entries of the source, which are not always exact repeats. Equal values may be shown once.
# Columns and labels:
# BIRC4 BIR2 = target: T1, BIRC4 BIR2 (Homo sapiens, UniProt P98170); assay: NanoBRET tracer titration, BIRC4 BIR2; assay type: cell-based; settings: single domain, n = 4; read-out: Tracer KD,app ± SEM, BIRC4 BIR2
# T1 construct: G144 S253; expressed in transfected cells; host or cells: HEK293T
# T1 sequence (P98170 144-253): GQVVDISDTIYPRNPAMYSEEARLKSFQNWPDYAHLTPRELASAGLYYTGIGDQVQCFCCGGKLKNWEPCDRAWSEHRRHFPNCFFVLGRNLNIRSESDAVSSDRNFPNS
# BIRC1 BIR1 = target: T2, BIRC1 BIR1 (Homo sapiens, UniProt Q13075); assay: NanoBRET tracer titration, BIRC1 BIR1 (third BIR domain of BIRC1); assay type: cell-based; settings: third BIR domain of BIRC1 (N256-Q391), n = 4; read-out: Tracer KD,app ± SEM, BIRC1 BIR1
# T2 construct: N256 Q391; expressed in transfected cells; host or cells: HEK293T
# T2 sequence (Q13075 256-391): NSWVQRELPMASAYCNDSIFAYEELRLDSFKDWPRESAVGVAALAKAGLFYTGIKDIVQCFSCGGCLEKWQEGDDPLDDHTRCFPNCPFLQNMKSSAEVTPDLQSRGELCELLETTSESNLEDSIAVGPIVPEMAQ
# BIRC2 BIR1 = target: T3, BIRC2 BIR1 (Homo sapiens, UniProt Q13490); assay: NanoBRET tracer titration, BIRC2 BIR1; assay type: cell-based; settings: single domain, n = 4; read-out: Tracer KD,app ± SEM, BIRC2 BIR1
# T3 construct: D24 S134; expressed in transfected cells; host or cells: HEK293T
# T3 sequence (Q13490 24-134): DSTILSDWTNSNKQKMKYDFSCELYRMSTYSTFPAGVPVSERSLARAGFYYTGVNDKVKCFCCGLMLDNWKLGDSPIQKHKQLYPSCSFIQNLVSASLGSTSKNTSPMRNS
# BIRC3 BIR1 = target: T4, BIRC3 BIR1 (Homo sapiens, UniProt Q13489); assay: NanoBRET tracer titration, BIRC3 BIR1; assay type: cell-based; settings: single domain, n = 4; read-out: Tracer KD,app ± SEM, BIRC3 BIR1
# T4 construct: N6 S116; expressed in transfected cells; host or cells: HEK293T
# T4 sequence (Q13489 6-116): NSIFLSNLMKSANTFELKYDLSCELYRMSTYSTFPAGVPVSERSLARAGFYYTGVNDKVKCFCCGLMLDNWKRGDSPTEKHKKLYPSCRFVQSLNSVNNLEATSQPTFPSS
# BIRC4 BIR1 = target: T5, BIRC4 BIR1 (Homo sapiens, UniProt P98170); assay: NanoBRET tracer titration, BIRC4 BIR1; assay type: cell-based; settings: single domain, n = 4; read-out: Tracer KD,app ± SEM, BIRC4 BIR1
# T5 construct: N4 Q114; expressed in transfected cells; host or cells: HEK293T
# T5 sequence (P98170 4-114): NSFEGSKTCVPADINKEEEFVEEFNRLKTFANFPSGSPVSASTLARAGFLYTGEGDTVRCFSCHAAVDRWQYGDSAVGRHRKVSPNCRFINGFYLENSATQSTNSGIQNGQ
# BIRC4 BIR3 = target: T6, BIRC4 BIR3 (Homo sapiens, UniProt P98170); assay: NanoBRET tracer titration, BIRC4 BIR3; assay type: cell-based; settings: single domain, n = 4; read-out: Tracer KD,app ± SEM, BIRC4 BIR3
# T6 construct: S245 N373; expressed in transfected cells; host or cells: HEK293T
# T6 sequence (P98170 245-373): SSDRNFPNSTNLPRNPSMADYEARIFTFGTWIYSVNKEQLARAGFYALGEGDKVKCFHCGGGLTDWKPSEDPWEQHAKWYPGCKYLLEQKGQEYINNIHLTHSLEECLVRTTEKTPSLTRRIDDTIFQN
# BIRC5 = target: T7, BIRC5 (Homo sapiens, UniProt O15392); assay: NanoBRET tracer titration, BIRC5; assay type: cell-based; settings: full-length taken as single BIR domain construct, n = 4; read-out: Tracer KD,app ± SEM, BIRC5
# T7 construct: M1 D142; expressed in transfected cells; host or cells: HEK293T
# T7 sequence (O15392 whole entry, the tested form may be a part): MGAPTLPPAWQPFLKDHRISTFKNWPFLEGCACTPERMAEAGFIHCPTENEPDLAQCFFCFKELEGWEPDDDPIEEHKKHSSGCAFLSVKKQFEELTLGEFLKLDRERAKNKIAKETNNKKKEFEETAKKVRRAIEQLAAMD
# BIRC2 = BIRC2 (Homo sapiens, UniProt Q13490); assay: NanoBRET cellular target engagement, full-length BIRC2; settings: Tracer K D, full-length BIRC2, full-length
# Chain of BIRC2 (Q13490 whole entry): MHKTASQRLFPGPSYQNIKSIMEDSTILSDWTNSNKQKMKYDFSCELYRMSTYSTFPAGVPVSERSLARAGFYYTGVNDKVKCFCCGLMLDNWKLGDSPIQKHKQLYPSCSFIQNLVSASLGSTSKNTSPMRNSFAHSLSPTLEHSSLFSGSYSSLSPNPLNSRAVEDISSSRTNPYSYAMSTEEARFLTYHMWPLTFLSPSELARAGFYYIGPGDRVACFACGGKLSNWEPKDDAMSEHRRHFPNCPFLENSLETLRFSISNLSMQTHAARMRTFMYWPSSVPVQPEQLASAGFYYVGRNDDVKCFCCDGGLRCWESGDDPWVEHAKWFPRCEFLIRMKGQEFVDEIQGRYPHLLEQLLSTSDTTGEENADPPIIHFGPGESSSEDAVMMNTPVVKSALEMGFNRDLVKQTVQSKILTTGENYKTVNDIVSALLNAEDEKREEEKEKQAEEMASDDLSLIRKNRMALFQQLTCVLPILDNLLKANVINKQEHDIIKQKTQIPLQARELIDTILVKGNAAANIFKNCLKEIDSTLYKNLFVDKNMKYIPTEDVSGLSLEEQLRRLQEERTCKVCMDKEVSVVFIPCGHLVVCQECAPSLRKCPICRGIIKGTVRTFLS
# Method: (§1) In brief: Constructs contained the cDNA of full-length or single domains cloned in frame with an N-terminal NanoLuc-fusion as specified in Supplementary Table S2. Plasmids were transfected into HEK293T cells using FuGENE HD (Promega, E2312) and proteins were allowed to express for 20 h. […] The corresponding transfected cells were added and reseeded at a density of 2.5^5 cells/mL after trypsinization and resuspending in Opti-MEM without phenol red (Life Technologies). […] Competitive displacement data were then graphed using GraphPad Prism 9.3 software using a normalized 3-parameter curve fit with the following equation: Y = 100/(1 + 10^(X-LogIC50)).
# BIRC3 = BIRC3 (Homo sapiens, UniProt Q13489); assay: NanoBRET cellular target engagement, full-length BIRC3
# Chain of BIRC3 (Q13489 whole entry): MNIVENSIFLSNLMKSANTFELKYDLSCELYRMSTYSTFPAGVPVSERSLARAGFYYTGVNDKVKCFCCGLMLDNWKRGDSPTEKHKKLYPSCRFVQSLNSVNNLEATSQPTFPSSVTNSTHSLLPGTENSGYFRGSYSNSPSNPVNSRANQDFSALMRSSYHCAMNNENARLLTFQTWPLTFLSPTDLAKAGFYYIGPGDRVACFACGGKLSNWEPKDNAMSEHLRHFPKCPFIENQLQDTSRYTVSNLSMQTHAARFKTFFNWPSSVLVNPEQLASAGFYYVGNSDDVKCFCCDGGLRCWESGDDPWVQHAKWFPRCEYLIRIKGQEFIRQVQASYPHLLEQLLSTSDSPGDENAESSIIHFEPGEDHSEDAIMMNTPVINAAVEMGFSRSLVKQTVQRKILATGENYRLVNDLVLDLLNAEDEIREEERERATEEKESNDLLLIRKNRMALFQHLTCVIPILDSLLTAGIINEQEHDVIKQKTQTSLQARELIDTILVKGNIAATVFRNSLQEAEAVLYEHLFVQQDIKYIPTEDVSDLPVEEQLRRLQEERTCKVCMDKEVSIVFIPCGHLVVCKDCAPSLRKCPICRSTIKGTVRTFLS
# Method: as §1
# BIRC4 = BIRC4 (Homo sapiens, UniProt P98170); assay: NanoBRET cellular target engagement, full-length BIRC4
# Chain of BIRC4 (P98170 whole entry): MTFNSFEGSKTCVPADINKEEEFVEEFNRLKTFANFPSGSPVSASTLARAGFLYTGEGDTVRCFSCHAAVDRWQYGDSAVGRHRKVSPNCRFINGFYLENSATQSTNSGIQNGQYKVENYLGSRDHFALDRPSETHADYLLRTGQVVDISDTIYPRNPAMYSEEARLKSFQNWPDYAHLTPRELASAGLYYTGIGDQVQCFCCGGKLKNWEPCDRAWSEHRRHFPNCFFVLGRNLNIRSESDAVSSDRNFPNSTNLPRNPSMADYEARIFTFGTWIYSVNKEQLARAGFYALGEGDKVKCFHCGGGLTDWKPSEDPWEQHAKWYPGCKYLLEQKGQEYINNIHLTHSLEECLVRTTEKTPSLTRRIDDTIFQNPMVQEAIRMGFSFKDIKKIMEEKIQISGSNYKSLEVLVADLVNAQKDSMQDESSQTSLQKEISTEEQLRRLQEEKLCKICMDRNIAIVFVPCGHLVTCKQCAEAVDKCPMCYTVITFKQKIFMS
# Method: as §1
# BIRC7 = target: T8, BIRC7 (Homo sapiens, UniProt Q96CA5); assay: NanoBRET cellular target engagement, full-length BIRC7
# T8 sequence (Q96CA5 1-298): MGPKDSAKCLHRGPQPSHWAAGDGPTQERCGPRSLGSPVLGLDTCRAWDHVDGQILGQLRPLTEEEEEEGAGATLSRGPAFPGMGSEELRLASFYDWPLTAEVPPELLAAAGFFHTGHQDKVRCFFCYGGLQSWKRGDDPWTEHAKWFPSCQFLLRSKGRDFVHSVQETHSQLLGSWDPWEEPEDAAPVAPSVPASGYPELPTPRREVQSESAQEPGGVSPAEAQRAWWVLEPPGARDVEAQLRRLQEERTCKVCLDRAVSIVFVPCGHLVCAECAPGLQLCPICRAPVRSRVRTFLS
# Method: as §1
# BIRC8 = target: T9, BIRC8 (Homo sapiens, UniProt Q96P09); assay: NanoBRET cellular target engagement, full-length BIRC8
# T9 sequence (Q96P09 1-236): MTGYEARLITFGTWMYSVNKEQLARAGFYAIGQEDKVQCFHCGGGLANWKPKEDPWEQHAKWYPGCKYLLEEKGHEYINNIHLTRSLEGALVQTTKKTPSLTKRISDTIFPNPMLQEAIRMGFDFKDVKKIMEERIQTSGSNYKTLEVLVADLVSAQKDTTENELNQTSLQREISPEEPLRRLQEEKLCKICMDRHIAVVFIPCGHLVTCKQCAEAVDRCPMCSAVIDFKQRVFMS
# Method: as §1
# BIRC7 BIR = target: T10, BIRC7 BIR (Homo sapiens, UniProt Q96CA5); assay: NanoBRET cellular target engagement, single domain BIRC7 BIR; settings: Tracer KD,app ± SEM, BIRC7 BIR, single domain, n = 4
# T10 sequence (Q96CA5 70-176): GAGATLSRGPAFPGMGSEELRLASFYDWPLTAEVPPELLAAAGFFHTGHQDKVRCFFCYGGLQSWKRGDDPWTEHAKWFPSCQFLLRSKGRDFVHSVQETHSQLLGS
# Method: as §1
# BIRC8 BIR = target: T11, BIRC8 BIR (Homo sapiens, UniProt Q96P09); assay: NanoBRET cellular target engagement, single domain BIRC8 BIR
# T11 sequence (Q96P09 1-90): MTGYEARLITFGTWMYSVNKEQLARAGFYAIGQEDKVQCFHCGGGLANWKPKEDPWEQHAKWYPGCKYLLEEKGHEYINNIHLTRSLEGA
# Method: as §1
# BIRC2 BIR2 = BIRC2 BIR2 (Homo sapiens, UniProt Q13490); assay: NanoBRET cellular target engagement, single domain BIRC2 BIR2; settings: Tracer KD,app ± SEM, BIRC2 BIR2, single domain, n = 4
# Chain of BIRC2 BIR2 (Q13490 165-267): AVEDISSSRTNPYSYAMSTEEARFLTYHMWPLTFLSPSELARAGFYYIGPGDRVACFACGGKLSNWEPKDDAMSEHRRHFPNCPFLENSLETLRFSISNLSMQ
# Method: as §1
# BIRC3 BIR2 = BIRC3 BIR2 (Homo sapiens, UniProt Q13489); assay: NanoBRET cellular target engagement, single domain BIRC3 BIR2; settings: Tracer KD,app ± SEM, BIRC3 BIR2, single domain, n = 4
# Chain of BIRC3 BIR2 (Q13489 147-253): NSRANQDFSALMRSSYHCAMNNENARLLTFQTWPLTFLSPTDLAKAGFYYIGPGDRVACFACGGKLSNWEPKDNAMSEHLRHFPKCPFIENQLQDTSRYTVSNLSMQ
# Method: as §1
# BIRC2 BIR3 = BIRC2 BIR3 (Homo sapiens, UniProt Q13490); assay: NanoBRET cellular target engagement, single domain BIRC2 BIR3
# Chain of BIRC2 BIR3 (Q13490 251-372): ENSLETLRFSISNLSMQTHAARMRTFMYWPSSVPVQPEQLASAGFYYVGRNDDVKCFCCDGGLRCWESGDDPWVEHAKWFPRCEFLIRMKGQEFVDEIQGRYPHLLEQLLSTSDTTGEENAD
# Method: as §1
# BIRC3 BIR3 = BIRC3 BIR3 (Homo sapiens, UniProt Q13489); assay: NanoBRET cellular target engagement, single domain BIRC3 BIR3; settings: Tracer KD,app ± SEM, BIRC3 BIR3, single domain, n = 4
# Chain of BIRC3 BIR3 (Q13489 236-360): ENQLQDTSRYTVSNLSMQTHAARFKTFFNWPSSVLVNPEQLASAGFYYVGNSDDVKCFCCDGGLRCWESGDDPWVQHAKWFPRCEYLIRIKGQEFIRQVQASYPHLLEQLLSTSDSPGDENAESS
# Method: as §1
# BIRC1 BIR[2] = target: T12, BIRC1 BIR[2] (Homo sapiens, UniProt Q13075); assay: NanoBRET cellular target engagement, single domain BIRC1 BIR[2]; settings: Tracer KD,app ± SEM, BIRC1 BIR[2], single domain (D139-G251), n = 4
# T12 sequence (Q13075 139-251): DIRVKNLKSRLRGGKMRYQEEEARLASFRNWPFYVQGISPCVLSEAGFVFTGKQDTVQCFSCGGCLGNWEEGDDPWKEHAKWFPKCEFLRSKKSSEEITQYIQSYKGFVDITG
# Method: as §1
compound,measurement,setting,value
CNC(C)C(=O)NC(C(=O)N1CCCC1c1nc(C(=O)c2cccc(OCCOCCOCCNC(=O)CCc3ccc4n3[B-](F)(F)[N+]3=C(c5ccc[nH]5)C=CC3=C4)c2)cs1)C1CCCCC1 (centres unmarked) [IAP Tracer],Kd,BIRC4 BIR2,> 4000 nM
same,Kd,BIRC1 BIR1,< 4000 nM and > 4000 nM and > 1000 nM
same,Kd,BIRC2 BIR1,2420 nM and > 1000 nM
same,Kd,BIRC3 BIR1,2310 nM and > 1000 nM
same,Kd,BIRC4 BIR1,2750 nM and > 1000 nM
same,Kd,BIRC4 BIR3,> 4000 nM
same,Kd,BIRC5,> 4000 nM
same,Kd,BIRC2,< 250 nM and 20 nM
same,Kd,"BIRC3; Tracer K D, full-length BIRC3, full-length",< 250 nM
same,Kd,"BIRC3; Tracer KD,app ± SEM, BIRC3, full-length, n = 4",190 ± 30 nM
same,Kd,"BIRC4; Tracer K D, full-length BIRC4, full-length",< 250 nM
same,Kd,"BIRC4; Tracer KD,app ± SEM, BIRC4, full-length, n = 4",40 nM
same,Kd,"BIRC7; Tracer K D, full-length BIRC7, full-length",< 250 nM
same,Kd,"BIRC7; Tracer KD,app ± SEM, BIRC7, full-length, n = 4",250 ± 20 nM
same,Kd,BIRC8,1060 ± 350 nM
same,Kd,BIRC7 BIR,540 nM and < 1000 nM
same,Kd,BIRC8 BIR,2760 ± 340 nM
same,Kd,BIRC2 BIR2,2600 nM and > 1000 nM
same,Kd,BIRC3 BIR2,1670 nM and > 1000 nM
same,Kd,"BIRC2 BIR3; Tracer K D, app, BIRC2-BIR3 domain, single domain",50 ± 10 nM
same,Kd,"BIRC2 BIR3; Tracer KD,app ± SEM, BIRC2 BIR3, single domain, n = 4",< 1000 nM
same,Kd,BIRC3 BIR3,380 nM and < 1000 nM
same,Kd,BIRC1 BIR[2],1790 nM and > 1000 nM
